pKi: −log10 of the molar value.
biological target: T1, LRRK2 (Homo sapiens, UniProt Q5S007, G2019S); assay: In Vitro LRRK2 Assay (LabChip 3000, fluorescently-labeled peptide substrate, ATP); type: biochemical; conditions: read-out: LRRK2 Ki (KI), Table 8
T1 construct: purchased Invitrogen PV4882 (lot 567054A)
Procedure, shortened: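 Read-out was LabChip capillary electrophoresis, resolving phospho- from non-phospho-peptide by fluorescence intensity. The kinase reaction combined enzyme, ATP, test compound and labeled peptide (4 μM working dilution) for 2 h in darkness before stop solution. Values were reported as Ki, from a tight-binding model with Et, S and Km, or as IC50 or percent inhibition.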

T1 sequence (Q5S007 whole entry G2019S): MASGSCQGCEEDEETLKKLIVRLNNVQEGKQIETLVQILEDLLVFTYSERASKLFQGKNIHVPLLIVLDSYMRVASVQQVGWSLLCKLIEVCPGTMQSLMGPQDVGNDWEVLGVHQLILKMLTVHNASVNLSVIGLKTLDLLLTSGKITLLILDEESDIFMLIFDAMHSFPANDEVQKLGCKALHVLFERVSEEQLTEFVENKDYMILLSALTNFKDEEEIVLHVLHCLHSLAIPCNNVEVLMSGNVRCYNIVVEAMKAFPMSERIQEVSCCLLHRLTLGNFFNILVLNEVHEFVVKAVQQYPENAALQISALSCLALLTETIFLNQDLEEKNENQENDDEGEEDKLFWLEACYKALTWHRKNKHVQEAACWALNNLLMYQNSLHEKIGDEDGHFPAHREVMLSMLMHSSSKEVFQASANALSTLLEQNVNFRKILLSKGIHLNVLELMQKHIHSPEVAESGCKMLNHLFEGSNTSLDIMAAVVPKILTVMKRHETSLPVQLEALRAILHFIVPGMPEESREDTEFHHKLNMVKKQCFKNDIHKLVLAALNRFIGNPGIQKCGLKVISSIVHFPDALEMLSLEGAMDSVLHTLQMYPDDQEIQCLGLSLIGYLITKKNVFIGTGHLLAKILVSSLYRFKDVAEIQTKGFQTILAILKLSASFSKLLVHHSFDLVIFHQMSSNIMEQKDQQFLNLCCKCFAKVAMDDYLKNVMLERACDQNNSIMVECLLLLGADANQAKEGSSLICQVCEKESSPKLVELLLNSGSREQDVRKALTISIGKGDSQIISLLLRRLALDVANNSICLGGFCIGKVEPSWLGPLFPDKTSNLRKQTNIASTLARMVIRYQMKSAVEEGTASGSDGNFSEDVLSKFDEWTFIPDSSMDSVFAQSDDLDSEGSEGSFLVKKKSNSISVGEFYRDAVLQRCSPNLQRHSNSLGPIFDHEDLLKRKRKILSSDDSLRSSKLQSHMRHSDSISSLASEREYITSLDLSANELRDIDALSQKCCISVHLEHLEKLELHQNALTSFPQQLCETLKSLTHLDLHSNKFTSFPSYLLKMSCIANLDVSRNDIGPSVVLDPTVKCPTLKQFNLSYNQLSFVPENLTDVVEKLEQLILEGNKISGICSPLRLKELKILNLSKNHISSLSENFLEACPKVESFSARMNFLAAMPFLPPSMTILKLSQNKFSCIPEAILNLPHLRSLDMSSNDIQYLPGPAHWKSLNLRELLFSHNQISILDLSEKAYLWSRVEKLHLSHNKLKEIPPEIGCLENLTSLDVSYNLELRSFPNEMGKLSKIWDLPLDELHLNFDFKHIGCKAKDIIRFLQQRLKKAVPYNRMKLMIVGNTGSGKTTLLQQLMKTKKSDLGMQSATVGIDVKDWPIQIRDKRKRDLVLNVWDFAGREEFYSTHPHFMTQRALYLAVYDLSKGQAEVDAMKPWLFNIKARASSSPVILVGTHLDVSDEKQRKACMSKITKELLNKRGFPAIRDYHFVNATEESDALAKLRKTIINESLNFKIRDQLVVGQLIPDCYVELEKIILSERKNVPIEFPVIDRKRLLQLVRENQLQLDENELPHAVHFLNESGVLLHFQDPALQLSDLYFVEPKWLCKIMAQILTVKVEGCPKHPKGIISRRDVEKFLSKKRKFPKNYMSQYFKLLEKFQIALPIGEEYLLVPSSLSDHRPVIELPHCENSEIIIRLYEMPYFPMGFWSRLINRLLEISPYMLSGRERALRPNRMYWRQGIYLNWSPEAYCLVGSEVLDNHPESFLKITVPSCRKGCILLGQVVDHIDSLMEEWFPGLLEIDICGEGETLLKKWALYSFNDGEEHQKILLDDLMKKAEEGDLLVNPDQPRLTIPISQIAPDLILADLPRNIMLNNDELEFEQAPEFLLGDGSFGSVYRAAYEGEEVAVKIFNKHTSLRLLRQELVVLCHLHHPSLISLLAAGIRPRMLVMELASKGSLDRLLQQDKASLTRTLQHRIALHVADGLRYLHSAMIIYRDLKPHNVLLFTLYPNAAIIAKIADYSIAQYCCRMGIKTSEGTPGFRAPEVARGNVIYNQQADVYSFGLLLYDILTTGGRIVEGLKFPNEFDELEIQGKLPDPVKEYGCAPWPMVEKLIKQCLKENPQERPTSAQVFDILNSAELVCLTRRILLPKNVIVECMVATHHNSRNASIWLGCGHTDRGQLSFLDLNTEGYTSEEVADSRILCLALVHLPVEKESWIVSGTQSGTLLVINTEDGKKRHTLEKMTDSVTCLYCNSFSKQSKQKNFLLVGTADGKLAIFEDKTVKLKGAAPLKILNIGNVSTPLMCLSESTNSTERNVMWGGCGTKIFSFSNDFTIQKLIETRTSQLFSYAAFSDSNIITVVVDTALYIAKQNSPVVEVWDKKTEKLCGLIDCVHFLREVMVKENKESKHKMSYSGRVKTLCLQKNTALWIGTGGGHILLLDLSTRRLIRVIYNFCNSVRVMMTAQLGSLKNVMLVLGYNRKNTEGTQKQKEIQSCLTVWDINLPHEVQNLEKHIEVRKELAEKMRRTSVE

pKi | Compound
9.30 | CCNc1nc(Nc2cn(S(=O)(=O)CC)nc2C)ncc1C(F)(F)F [Example 243, N4-ethyl-N2-(1-(ethylsulfonyl)-3-methyl-1H-pyrazol-4-yl)-5-(trifluoromethyl) pyrimidine-2,4-diamine]
8.33 | CCNc1nc(Nc2cnn(S(=O)(=O)CC)c2C)ncc1C(F)(F)F [Example 244, N4-ethyl-N2-(1-(ethylsulfonyl)-5-methyl-1H-pyrazol-4-yl)-5-(trifluoromethyl) pyrimidine-2,4-diamine]
8.48 | CCS(=O)(=O)n1cc(Nc2ncc(C(F)(F)F)c(NC)n2)c(C)n1 [Example 249, N^2-(1-(ethylsulfonyl)-3-methyl-1H-pyrazol-4-yl)-N4-methyl-5-(trifluoromethyl) pyrimidine-2,4-diamine]
9.52 | CNc1nc(Nc2cn(-c3ccc(Cl)cc3)nc2C)ncc1Br [Example 260, 5-Bromo-N2-[1-(4-chloro-phenyl)-3-methyl-1H-pyrazol-4-yl]-N4-methyl-pyrimidine-2,4-diamine]
8.89 | CCNc1nc(Nc2cn(C3CCC(=O)NC3)nc2C)ncc1C(F)(F)F (stereo not shown) [Example 262, 5-[4-(4-Ethylamino-5-trifluoromethyl-pyrimidin-2-ylamino)-3-methyl-pyrazol-1-yl]-piperidin-2-one]
8.74 | CCNc1nc(Nc2cn(-c3ccc(C(=O)N(C)C)cc3)nc2C)ncc1C(F)(F)F [Example 263, 4-[4-(4-Ethylamino-5-trifluoromethyl-pyrimidin-2-ylamino)-3-methyl-pyrazol-1-yl]-N,N-dimethyl-benzamide]
8.49 | CCNc1nc(Nc2cn(-c3ccc(S(=O)(=O)C4CC4)cc3)nc2C)ncc1C(F)(F)F [Example 264, N2-[1-(4-Cyclopropane-sulfonyl-phenyl)-3-methyl-1H-pyrazol-4-yl]-N4-ethyl-5-trifluoromethyl-pyrimidine-2,4-diamine]
8.32 | CCNc1nc(Nc2cn(-c3ccc(C#N)cc3)nc2C)ncc1C(F)(F)F [Example 265, 4-[4-(4-Ethylamino-5-trifluoromethyl-pyrimidin-2-ylamino)-3-methyl-pyrazol-1-yl]-benzonitrile]
8.68 | CCNc1nc(Nc2cn(-c3ccc(S(C)(=O)=O)cc3)nc2C)ncc1C(F)(F)F [Example 266, N4-Ethyl-N2-[1-(4-methanesulfonyl-phenyl)-3-methyl-1H-pyrazol-4-yl]-5-trifluoromethyl-pyrimidine-2,4-diamine]
8.11 | CCNc1nc(Nc2cn(C3CCN(C(=O)C(C)C)CC3)nc2C)ncc1C(F)(F)F [Example 268, 1-{4-[4-(4-Ethylamino-5-trifluoromethyl-pyrimidin-2-ylamino)-3-methyl-pyrazol-1-yl]-piperidin-1-yl}-2-methyl-propan-1-one]
8.04 | CNc1nc(Nc2cn(-c3ccncc3C)nc2C)ncc1C(F)(F)F [Example 269, N4-Methyl-N2-[3-methyl-1-(3-methyl-pyridin-4-yl)-1H-pyrazol-4-yl]-5-trifluoromethyl-pyrimidine-2,4-diamine]
8.33 | CCNc1nc(Nc2cnn(S(=O)(=O)C(C)C)c2C)ncc1C(F)(F)F [Example 279, N4-Ethyl-N2-[5-methyl-1-(propane-2-sulfonyl)-1H-pyrazol-4-yl]-5-trifluoromethyl-pyrimidine-2,4-diamine]
8.89 | CCNc1nc(Nc2cn(C)nc2C2CCC2)ncc1C(F)(F)F [Example 281, N2-(3-Cyclobutyl-1-methyl-1H-pyrazol-4-yl)-N4-ethyl-5-trifluoromethyl-pyrimidine-2,4-diamine]

Second part, the molecule before the results:

Compound | pKi
CCNc1nc(Nc2cn(CC(C)(C)O)nc2C2CC2)ncc1C(F)(F)F [Example 236, 1-(3-cyclopropyl-4-(4-(ethylamino)-5-(trifluoromethyl)pyrimidin-2-ylamino)-1H-pyrazol-1-yl)-2-methylpropan-2-ol] | 8.82
CNC(=O)C(C)(C)n1ncc(Nc2ncc(C(F)(F)F)c(NC)n2)c1Cl [Example 237, 2-(5-chloro-4-(4-(methylamino)-5-(trifluoromethyl)pyrimidin-2-ylamino)-1H-pyrazol-1-yl)-N,2-dimethylpropan-amide] | 7.35
CNc1nc(Nc2cn(C3CCN(CCOC)CC3)nc2C)ncc1C(F)(F)F [Example 238, N2-(1-(1-(2-methoxyethyl)piperidin-4-yl)-3-methyl-1H-pyrazol-4-yl)-N4-methyl-5-(trifluoromethyl) pyrimidine-2,4-diamine] | 7.80
CNc1nc(Nc2cnn(C3CCN(CCOC)CC3)c2C)ncc1C(F)(F)F [Example 239, N2-(1-(1-(2-methoxyethyl)piperidin-4-yl)-5-methyl-1H-pyrazol-4-yl)-N4-methyl-5-(trifluoromethyl) pyrimidine-2,4-diamine] | 8.22
CNc1nc(Nc2cnn(C3CCN(C)CC3F)c2Cl)ncc1C(F)(F)F (stereo not shown) [Example 241, N2-(5-chloro-1-(3-fluoro-1-methylpiperidin-4-yl)-1H-pyrazol-4-yl)-N4-methyl-5-(trifluoromethyl) pyrimidine-2,4-diamine] | 8.74
CCN1CCC(n2ncc(Nc3ncc(C(F)(F)F)c(NC)n3)c2Cl)C(F)C1 (stereo not shown) [Example 242, N2-(5-chloro-1-(1-ethyl-3-fluoropiperidin-4-yl)-1H-pyrazol-4-yl)-N4-methyl-5-(trifluoromethyl) pyrimidine-2,4-diamine] | 8.68
CNc1nc(Nc2cnn(C)c2N(C)C)ncc1C(F)(F)F [Example 247, N2-(5-(dimethylamino)-1-methyl-1H-pyrazol-4-yl)-N4-methyl-5-(trifluoromethyl) pyrimidine-2,4-diamine] | 7.11
CNc1nc(Nc2cn(CC(C)(C)O)nc2C)ncc1C(F)(F)F [Example 250, 2-Methyl-1-[3-methyl-4-(4-methylamino-5-trifluoromethyl-pyrimidin-2-ylamino)-pyrazol-1-yl]-propan-2-ol] | 7.91
CCn1cc(Nc2ncc(Br)c(NC)n2)c(C)n1 [Example 253, 5-Bromo-N2-(1-ethyl-3-methyl-1H-pyrazol-4-yl)-N4-methyl-pyrimidine-2,4-diamine] | 8.66
CNc1nc(Nc2cn(CC(F)(F)F)nc2C)ncc1C(F)(F)F [Example 254, N4-Methyl-N2-[3-methyl-1-(2,2,2-trifluoro-ethyl)-1H-pyrazol-4-yl]-5-trifluoromethyl-pyrimidine-2,4-diamine] | 8.11
CNc1nc(Nc2cnn(C(F)F)c2C)ncc1Br [Example 255, 5-Bromo-N2-(1-difluoromethyl-5-methyl-1H-pyrazol-4-yl)-N4-methyl-pyrimidine-2,4-diamine] | 9.15
CNc1nc(Nc2cn(C(F)F)nc2C)ncc1Br [Example 256, 5-Bromo-N2-(1-difluoromethyl-3-methyl-1H-pyrazol-4-yl)-N4-methyl-pyrimidine-2,4-diamine] | 8.66
CCNc1nc(Nc2cnn(C)c2C)ncc1Br [Example 257, 5-Bromo-N2-(1,5-dimethyl-1H-pyrazol-4-yl)-N4-ethyl-pyrimidine-2,4-diamine] | 8.82
CCCn1ncc(Nc2ncc(Br)c(NC)n2)c1C [Example 259, 5-Bromo-N4-methyl-N2-(5-methyl-1-propyl-1H-pyrazol-4-yl)-pyrimidine-2,4-diamine] | 8.24
CCNc1nc(Nc2cnn(C)c2C)ncc1C(F)(F)F [Example 261, N2-(1,5-Dimethyl-1H-pyrazol-4-yl)-N4-ethyl-5-trifluoromethyl-pyrimidine-2,4-diamine] | 8.89
CCNc1nc(Nc2cnn(C3CCN(C(=O)C(C)C)CC3)c2C)ncc1C(F)(F)F [Example 267, 1-{4-[4-(4-Ethylamino-5-trifluoromethyl-pyrimidin-2-ylamino)-5-methyl-pyrazol-1-yl]-piperidin-1-yl}-2-methyl-propan-1-one] | 9.10
CNc1nc(Nc2cn(C[C@@H](C)OC)nc2C)ncc1C(F)(F)F [Example 270, N2-[1-((R)-2-Methoxy-propyl)-3-methyl-1H-pyrazol-4-yl]-N4-methyl-5-trifluoromethyl-pyrimidine-2,4-diamine] | 7.77
CNc1nc(Nc2cnn(C3CC(C)OC(C)C3)c2C)ncc1C(F)(F)F (stereo not shown) [Example 272, N2-[1-(2,6-Dimethyl-tetrahydro-pyran-4-yl)-5-methyl-1H-pyrazol-4-yl]-N4-methyl-5-trifluoromethyl-pyrimidine-2,4-diamine] | 8.29
CNc1nc(Nc2cn(C3CCS(=O)(=O)CC3)nc2C)ncc1C(F)(F)F [Example 273, N2-[1-(1,1-Dioxo-hexahydro-1$1%6&- thiopyran-4-yl)-3-methyl-1H-pyrazol-4-yl]-N4-mcthyl-5-trifluoromethyl-pyrimidine-2,4-diamine] | 7.43
CNc1nc(Nc2cnn([C@H](C)COC)c2C)ncc1C(F)(F)F [Example 274, N2-[1-((R)-2-Methoxy-1-methyl-ethyl)-5-methyl-1H-pyrazol-4-yl]-N4-methyl-5-trifluoromethyl-pyrimidine-2,4-diamine] | 7.73
CNc1nc(Nc2cn([C@@H](C)COC)nc2C)ncc1C(F)(F)F [Example 275, N2-[1-((S)-2-Methoxy-1-methyl-ethyl)-3-methyl-1H-pyrazol-4-yl]-N4-methyl-5-trifluoromethyl-pyrimidine-2,4-diamine] | 8.05
CNc1nc(Nc2cn([C@H]3CCN(C4COC4)C3)nc2C)ncc1C(F)(F)F [Example 276, N4-Methyl-N2-[3-methyl-1-((S)-1-oxetan-3-yl-pyrrolidin-3-yl)-1H-pyrazol-4-yl]-5-trifluoromethyl-pyrimidine-2,4-diamine] | 8.41
CNc1nc(Nc2cnn(C3CN(C(C)C)C3)c2C)ncc1C(F)(F)F [Example 278, N2-[1-(1-Isopropyl-azetidin-3-yl)-5-methyl-1H-pyrazol-4-yl]-N4-methyl-5-trifluoromethyl-pyrimidine-2,4-diamine] | 8.92
CCNc1nc(Nc2cnn(C)c2C2CCC2)ncc1C(F)(F)F [Example 280, N2-(5-Cyclobutyl-1-methyl-1H-pyrazol-4-yl)-N4-ethyl-5-trifluoromethyl-pyrimidine-2,4-diamine] | 8.44

From US8815882B2, “Pyrazole aminopyrimidine derivatives as LRRK2 modulators” (Genentech, Inc., priority 2010, dated 2014)
